In US20230183292A1, “IMMUNOMODULATORS” (priority 2020, published 2023):
Positions of bridges follow the written chain, without caps; N, C: chain ends. Non-standard residues stand in square brackets, D forms with d. Residues, ends and D or L forms follow the SMILES beside them. *: point of attachment. X24 = C[C@H](CCC(=O)*)[C@H]1CC[C@H]2[C@@H]3[C@H](O)[C@H](O)[C@@H]4C[C@H](O)CC[C@]4(C)[C@H]3CC[C@]12C; X23 = C[C@H](CCC(=O)*)[C@H]1CC[C@H]2[C@@H]3C(=O)[C@H](O)[C@@H]4C[C@H](O)CC[C@]4(C)[C@H]3CC[C@]12C; X10 = C[C@H](CCC(=O)*)[C@H]1CC[C@H]2[C@@H]3C(=O)C[C@@H]4C[C@H](O)CC[C@]4(C)[C@H]3CC(=O)[C@]12C; X19 = C[C@H](CCC(=O)*)[C@H]1CC[C@H]2[C@@H]3CC(=O)[C@@H]4C[C@H](O)CC[C@]4(C)[C@H]3CC[C@]12C; X33 = C[C@H](CCC(=O)*)[C@H]1CC[C@H]2[C@@H]3C(=O)C[C@@H]4C[C@H](O)CC[C@]4(C)[C@H]3CC[C@]12C; X16 = C[C@H](CCC(=O)*)[C@H]1CC[C@H]2[C@@H]3CC(=O)[C@@H]4CC(=O)CC[C@]4(C)[C@H]3CC[C@]12C; Trp(1-CH2COOH) = N[C@@H](Cc1cn(CC(=O)O)c2ccccc12)C(=O)O; Hyp = O=C(O)[C@@H]1C[C@@H](O)CN1; NMeNle = CCCC[C@H](NC)C(=O)O; NMeA = CN[C@@H](C)C(=O)O; Dab = NCC[C@H](N)C(=O)O; Dap = NC[C@H](N)C(=O)O

Target: T1, PD-1/PD-L1 (Homo sapiens, UniProt Q9NZQ7)
T1 construct: TVMV protease site (C); made in house; host or cells: HEK293T cells
T1 sequence (Q9NZQ7 18-239): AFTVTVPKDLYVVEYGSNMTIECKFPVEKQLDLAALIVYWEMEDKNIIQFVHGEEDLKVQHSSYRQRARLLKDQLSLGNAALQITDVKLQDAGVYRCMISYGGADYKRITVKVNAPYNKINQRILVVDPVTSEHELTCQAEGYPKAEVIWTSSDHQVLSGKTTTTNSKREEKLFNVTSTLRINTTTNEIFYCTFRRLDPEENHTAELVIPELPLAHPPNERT
Test: PD-1/PD-L1 Homogenous Time-Resolved Fluorescence (HTRF) binding assay
Details: PD-L1-His 10 nM, PD-1-Ig 20 nM; read-out: HTRF IC50
Excerpt: The ability of the compounds of formula (I) to bind to PD-L1 was investigated using a PD-1/PD-L1 Homogenous Time-Resolved Fluorescence (HTRF) binding assay.
The interaction of PD-1 and PD-L1 can be assessed using soluble, purified preparations of the extracellular domains of the two proteins. The PD-1 and PD-L1 protein extracellular domains were expressed as fusion proteins with detection tags, for PD-1, the tag was the Fc portion of Immunoglobulin (PD-1-Ig) and for PD-L1 it was the 6 histidine motif (PD-L1-His). All binding studies were performed in an HTRF assay buffer consisting of dPBS supplemented with 0.1% […] bovine serum albumin and 0.05% (v/v) Tween-20. For the h/PD-L1-His binding assay, inhibitors were pre-incubated with PD-L1-His (10 nM final) for 15 m in 4 μl of assay buffer, followed by addition of PD-1-Ig (20 nM final) in 1 μl of assay buffer and further incubation for 15 m. HTRF detection was achieved using europium crypate-labeled anti-Ig (1 nM final) and allophycocyanin (APC) labeled anti-His (20 nM final). Antibodies were diluted in HTRF detection buffer and 5 μl was dispensed on top of the binding reaction. The reaction mixture was allowed to equilibrate for 30 minutes and the resulting signal (665 nm/620 nm ratio) was obtained using an EnVision fluorometer. Additional binding assays were established between the human proteins PD-1-Ig/PD-L2-His (20 & 5 nM, respectively) and CD80-His/PD-L1-Ig (100 & 10 nM, respectively).
Recombinant Proteins: Human PD-1 (25-167) with a C-terminal human Fc domain of immunoglobulin G (Ig) epitope tag [hPD-1 (25-167)-3S-IG] and human PD-L1 (18-239) with a C-terminal His epitope tag [hPD-L1(18-239)-TVMV-His] were expressed in HEK293T cells and purified sequentially by ProteinA affinity chromatography and size exclusion chromatography. Human PD-L2-His and CD80-His was obtained through commercial sources.
Table 1 lists the IC50 values for representative examples of this disclosure measured in the PD-1/PD-L1 Homogenous Time-Resolved Fluorescence (HTRF) binding assay.

Compound | IC50
CCCC[C@H]1C(=O)N(C)[C@@H](CCCC)C(=O)N[C@@H](CC(C)C)C(=O)N[C@H](C(=O)NCC(N)=O)CSCC(=O)N[C@@H](Cc2ccc(O)cc2)C(=O)N(C)[C@@H](C)C(=O)N[C@@H](CC(N)=O)C(=O)N2CCC[C@H]2C(=O)N[C@@H](CNC(=O)CC[C@@H](C)[C@H]2CC[C@H]3[C@@H]4C(=O)[C@H](O)[C@@H]5C[C@H](O)CC[C@]5(C)[C@H]4CC[C@]23C)C(=O)N[C@@H](CC(C)C)C(=O)N2C[C@H](O)C[C@H]2C(=O)N[C@@H](Cc2c[nH]c3ccccc23)C(=O)N[C@@H](CCNC(=O)CC[C@@H](C)[C@H]2CC[C@H]3[C@@H]4[C@H](O)[C@H](O)[C@@H]5C[C@H](O)CC[C@]5(C)[C@H]4CC[C@]23C)C(=O)N[C@@H](Cc2cn(CC(=O)O)c3ccccc23)C(=O)N1C [Example 1015] ({CH2CO}-Y[NMeA]NP[Dap](X23)L[Hyp]W[Dab](X24)[Trp(1-CH2COOH)][NMeNle][NMeNle]LCG-NH2; thioether N-14) | 9.3 nM
CCCC[C@H]1C(=O)N(C)[C@@H](CCCC)C(=O)N[C@@H](CC(C)C)C(=O)N[C@H](C(=O)NCC(N)=O)CSCC(=O)N[C@@H](Cc2ccc(O)cc2)C(=O)N(C)[C@@H](C)C(=O)N[C@@H](CC(N)=O)C(=O)N2CCC[C@H]2C(=O)N[C@@H](CNC(=O)CC[C@@H](C)[C@H]2CC[C@H]3[C@@H]4C(=O)C[C@@H]5C[C@H](O)CC[C@]5(C)[C@H]4CC[C@]23C)C(=O)N[C@@H](CC(C)C)C(=O)N2C[C@H](O)C[C@H]2C(=O)N[C@@H](Cc2c[nH]c3ccccc23)C(=O)N[C@@H](CCNC(=O)CC[C@@H](C)[C@H]2CC[C@H]3[C@@H]4C(=O)C[C@@H]5C[C@H](O)CC[C@]5(C)[C@H]4CC[C@]23C)C(=O)N[C@@H](Cc2cn(CC(=O)O)c3ccccc23)C(=O)N1C [Example 1016] ({CH2CO}-Y[NMeA]NP[Dap](X33)L[Hyp]W[Dab](X33)[Trp(1-CH2COOH)][NMeNle][NMeNle]LCG-NH2; thioether N-14) | 12 nM
CCCC[C@H]1C(=O)N(C)[C@@H](CCCC)C(=O)N[C@@H](CC(C)C)C(=O)N[C@H](C(=O)NCC(N)=O)CSCC(=O)N[C@@H](Cc2ccc(O)cc2)C(=O)N(C)[C@@H](C)C(=O)N[C@@H](CC(N)=O)C(=O)N2CCC[C@H]2C(=O)N[C@@H](CNC(=O)CC[C@@H](C)[C@H]2CC[C@H]3[C@@H]4CC(=O)[C@@H]5C[C@H](O)CC[C@]5(C)[C@H]4CC[C@]23C)C(=O)N[C@@H](CC(C)C)C(=O)N2C[C@H](O)C[C@H]2C(=O)N[C@@H](Cc2c[nH]c3ccccc23)C(=O)N[C@@H](CCNC(=O)CC[C@@H](C)[C@H]2CC[C@H]3[C@@H]4CC(=O)[C@@H]5C[C@H](O)CC[C@]5(C)[C@H]4CC[C@]23C)C(=O)N[C@@H](Cc2cn(CC(=O)O)c3ccccc23)C(=O)N1C [Example 1017] ({CH2CO}-Y[NMeA]NP[Dap](X19)L[Hyp]W[Dab](X19)[Trp(1-CH2COOH)][NMeNle][NMeNle]LCG-NH2; thioether N-14) | 15 nM
CCCC[C@H]1C(=O)N(C)[C@@H](CCCC)C(=O)N[C@@H](CC(C)C)C(=O)N[C@H](C(=O)NCC(N)=O)CSCC(=O)N[C@@H](Cc2ccc(O)cc2)C(=O)N(C)[C@@H](C)C(=O)N[C@@H](CC(N)=O)C(=O)N2CCC[C@H]2C(=O)N[C@@H](CNC(=O)CC[C@@H](C)[C@H]2CC[C@H]3[C@@H]4C(=O)C[C@@H]5C[C@H](O)CC[C@]5(C)[C@H]4CC(=O)[C@]23C)C(=O)N[C@@H](CC(C)C)C(=O)N2C[C@H](O)C[C@H]2C(=O)N[C@@H](Cc2c[nH]c3ccccc23)C(=O)N[C@@H](CCNC(=O)CC[C@@H](C)[C@H]2CC[C@H]3[C@@H]4C(=O)C[C@@H]5C[C@H](O)CC[C@]5(C)[C@H]4CC(=O)[C@]23C)C(=O)N[C@@H](Cc2cn(CC(=O)O)c3ccccc23)C(=O)N1C [Example 1018] ({CH2CO}-Y[NMeA]NP[Dap](X10)L[Hyp]W[Dab](X10)[Trp(1-CH2COOH)][NMeNle][NMeNle]LCG-NH2; thioether N-14) | 6.2 nM
CCCC[C@H]1C(=O)N(C)[C@@H](CCCC)C(=O)N[C@@H](CC(C)C)C(=O)N[C@H](C(=O)NCC(N)=O)CSCC(=O)N[C@@H](Cc2ccc(O)cc2)C(=O)N(C)[C@@H](C)C(=O)N[C@@H](CC(N)=O)C(=O)N2CCC[C@H]2C(=O)N[C@@H](CNC(=O)CC[C@@H](C)[C@H]2CC[C@H]3[C@@H]4CC(=O)[C@@H]5CC(=O)CC[C@]5(C)[C@H]4CC[C@]23C)C(=O)N[C@@H](CC(C)C)C(=O)N2C[C@H](O)C[C@H]2C(=O)N[C@@H](Cc2c[nH]c3ccccc23)C(=O)N[C@@H](CCNC(=O)CC[C@@H](C)[C@H]2CC[C@H]3[C@@H]4CC(=O)[C@@H]5CC(=O)CC[C@]5(C)[C@H]4CC[C@]23C)C(=O)N[C@@H](Cc2cn(CC(=O)O)c3ccccc23)C(=O)N1C [Example 1019] ({CH2CO}-Y[NMeA]NP[Dap](X16)L[Hyp]W[Dab](X16)[Trp(1-CH2COOH)][NMeNle][NMeNle]LCG-NH2; thioether N-14) | 13 nM
